Data from patent US20230203445A1, “HYPOIMMUNOGENIC CELLS” (HEALIOS K.K., priority 2020, published 2023).

Test system: iCaspase9-introduced cells
Test: Suicide gene function: cell death induction by rapamycin (CellTiter Glo)
Assay type: cell-based, human
Settings: 24 hr
Procedure: Next, an experiment was conducted to confirm whether the introduced suicide gene is functionable. In order to confirm the function of the suicide gene iCaspase9 introduced into universal donor iPS cells as a safety mechanism, the cell death induction by the addition of rapamycin in vitro was confirmed. In order to evaluate the cell death induction efficiency, CellTiter Glo Assay Kit (Promega) was used to luminescence measure the cell viability based on the amount of ATP, which is an index of cell viability. The above-mentioned iCaspase9-introduced cells (clone B), and iCaspase9-free unedited cells (Parental) were cultured for 24 hr under the condition of each rapamycin concentration (0 nM, 0.003 nM, 0.01 nM, 0.03 nM, 0.1 nM, 0.3 nM, 1 nM) and the viable cell rate was measured.

## CO[C@H]1C[C@@H]2CC[C@@H](C)[C@@](O)(O2)C(=O)C(=O)N2CCCC[C@H]2C(=O)O[C@H]([C@H](C)C[C@@H]2CC[C@@H](O)[C@H](OC)C2)CC(=O)[C@H](C)/C=C(\C)[C@@H](O)[C@@H](OC)C(=O)[C@H](C)C[C@H](C)/C=C/C=C/C=C/1C [rapamycin]
  rapamycin concentration at which cell death was induced by iCaspase9: ≥ 0.1 nM
